Experimental data: US9833497B2, “Human originated EGF domain proteins and use of the same” (CHENGDU SOURCEBIO LIMITED-LIABILITY COMPANY, priority 2013, dated 2017)

Columns and labels:
Type in all cases: cell-based
[1] = system: E. coli DH5α; assay: Antibacterial activity: MIC and growth curve against E. coli DH5α in 96-well plate; conditions: minimal inhibitory concentration against E. coli DH5α; 96-well plate, 5×10^5 CFU/mL, 37° C., judged after 8 h
Procedure, shortened: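 Log-phase bacteria (OD600 ~0.5) resuspended in LB at 5×10^5 CFU/mL, exposed to recombinant protein at 50, 25, 12.5 μg/mL final in triplicate, 37 °C shaking at 175 rpm. OD600 read every 30 min; MIC is lowest concentration showing no growth.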

[2] = system: E. coli BL21; assay: MIC against Gram-negative bacteria: E. coli BL21; conditions: 5×10^5 CFU/mL
Procedure, shortened: (§1)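 Bacteria grown in LB at 37° C with shaking to McFarland 0.5, pelleted and resuspended in fresh LB, then seeded at 5×10^5 CFU/mL per well. Purified recombinant human EGF domain proteins were two-fold serially diluted in triplicate and plates shaken at 37° C, 175 rpm. MIC is the lowest protein concentration with no bacterial growth.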

[3] = system: Pseudomonas aeruginosa; assay: MIC against Gram-negative bacteria: Pseudomonas aeruginosa; conditions: 5×10^5 CFU/mL
Procedure, shortened: as §1

[4] = system: Klebsiella pneumonia; assay: MIC against Gram-negative bacteria: Klebsiella pneumonia; conditions: 5×10^5 CFU/mL
Procedure, shortened: as §1

[5] = system: Enterobacter cloacae; assay: MIC against Gram-negative bacteria: Enterobacter cloacae; conditions: 5×10^5 CFU/mL
Procedure, shortened: as §1

[6] = system: Aeromonas hydrophila; assay: MIC against Gram-negative bacteria: Aeromonas hydrophila; conditions: 5×10^5 CFU/mL
Procedure, shortened: as §1

[7] = system: Citrobacter diversus; assay: MIC against Gram-negative bacteria: Citrobacter diversus; conditions: 5×10^5 CFU/mL
Procedure, shortened: as §1

[8] = system: Moraxella catarrhalis; assay: MIC against Gram-negative bacteria: Moraxella catarrhalis; conditions: 5×10^5 CFU/mL
Procedure, shortened: as §1

[9] = system: Proteus mirabilis; assay: MIC against Gram-negative bacteria: Proteus mirabilis; conditions: 5×10^5 CFU/mL
Procedure, shortened: as §1

[10] = system: Proteus vulgaris; assay: MIC against Gram-negative bacteria: Proteus vulgaris; conditions: 5×10^5 CFU/mL
Procedure, shortened: as §1

[11] = system: Serratia marcescens; assay: MIC against Gram-negative bacteria: Serratia marcescens; conditions: 5×10^5 CFU/mL
Procedure, shortened: as §1

[12] = E. coli BL21, 10 h cultivation at 37° C.
[13] = 10 h cultivation at 37° C., two-fold serial dilution

Row | Substance | MIC [1] [µg/mL] | MIC (μg/mL) E. coli BL21 [2, 12] [µg/mL] | MIC (μg/mL) P. aeruginosa ([3]; 10 h cultivation at 37° C.) [µg/mL] | MIC (μg/mL) K. pneumonia ([4]; 10 h cultivation at 37° C.) [µg/mL] | MIC (μg/mL) E. cloacae ([5]; 10 h cultivation at 37° C.) [µg/mL] | MIC (μg/mL) A. hydrophila ([6]; 10 h cultivation at 37° C.) [µg/mL] | MIC (μg/mL) C. diversus ([7]; 10 h cultivation at 37° C.) [µg/mL] | MIC (μg/mL) M. catarrhalis ([8]; 10 h cultivation at 37° C.) [µg/mL] | MIC (μg/mL) P. mirabilis ([9]; 10 h cultivation at 37° C.) [µg/mL] | MIC (μg/mL) P. vulgaris ([10]; 10 h cultivation at 37° C.) [µg/mL] | MIC (μg/mL) S. marcescens ([11]; 10 h cultivation at 37° C.) [µg/mL] | MIC E. coli BL21 [2, 13] [µg/mL] | MIC P. aeruginosa [3, 13] [µg/mL] | MIC K. pneumonia [4, 13] [µg/mL] | MIC E. cloacae [5, 13] [µg/mL] | MIC A. hydrophila [6, 13] [µg/mL] | MIC C. diversus [7, 13] [µg/mL] | MIC M. catarrhalis [8, 13] [µg/mL] | MIC P. mirabilis [9, 13] [µg/mL] | MIC P. vulgaris [10, 13] [µg/mL] | further results
1 | PRT753 (RKDVCKSTHHGCEHICVNNGNSYICKCSEGFVLAEDGRRCK; listed as Homo sapiens) | 25 | 50 | 12.5 | 50 | 12.5 | 50 | 12.5 | 50 | 12.5 | 25 | 50 | – | – | – | – | – | – | – | – | – | –
2 | PRT1209 (ATEDCASNPCQNGGVCNPSPAGGYYCKCSALYIGTHCE; listed as Homo sapiens) | 50 | – | – | – | – | – | – | – | – | – | – | – | – | – | – | – | – | – | – | – | MIC against E. coli BL21 ([2]; E. coli BL21, 96-well plate, 37° C., 10 h): 12.5 µg/mL; MIC against P. aeruginosa ([3]; Pseudomonas aeruginosa, 96-well plate, 37° C., 10 h): 25 µg/mL; MIC against K. pneumonia ([4]; Klebsiella pneumonia, 96-well plate, 37° C., 10 h): 50 µg/mL; MIC against E. cloacae ([5]; Enterobacter cloacae, 96-well plate, 37° C., 10 h): 25 µg/mL; MIC against A. hydrophila ([6]; Aeromonas hydrophila, 96-well plate, 37° C., 10 h): 12.5 µg/mL; MIC against C. diversus ([7]; Citrobacter diversus, 96-well plate, 37° C., 10 h): 25 µg/mL; MIC against M. catarrhalis ([8]; Moraxella catarrhalis, 96-well plate, 37° C., 10 h): 12.5 µg/mL; MIC against P. mirabilis ([9]; Proteus mirabilis, 96-well plate, 37° C., 10 h): 12.5 µg/mL; MIC against P. vulgaris ([10]; Proteus vulgaris, 96-well plate, 37° C., 10 h): 25 µg/mL; MIC against S. marcescens ([11]; Serratia marcescens, 96-well plate, 37° C., 10 h): 12.5 µg/mL
3 | PRT1046 (WGFSCNASCQCAHEAVCSPQTGACTCTPGWHGAHCQ; listed as Homo sapiens) | 50 | – | – | – | – | – | – | – | – | – | – | 25 | 50 | 25 | 25 | 12.5 | 50 | 50 | 50 | 25 | MIC S. marcescens [11, 13]: 12.5 µg/mL
4 | PRT203 (CSPAFCNKRGICNNKHHCHCNYLWDPPNCL; listed as Homo sapiens) | 12.5 | 25 | 12.5 | 25 | 12.5 | 25 | 50 | 25 | 50 | 25 | 50 | – | – | – | – | – | – | – | – | – | –
5 | PRT1130 (DDCSSHCDLAHGCCAPDGSCRCDPGWEGLHCE; listed as Homo sapiens) | 12.5 | – | – | – | – | – | – | – | – | – | – | 12.5 | 50 | 12.5 | 50 | 12.5 | 25 | 50 | 25 | 12.5 | MIC S. marcescens [11, 13]: 25 µg/mL
6 | PRT712 (GSNSCQLNNGGCSQLCLPTSETTRTCMCTVGYYLQKNRMSCQ; listed as Homo sapiens) | 25 | – | – | – | – | – | – | – | – | – | – | – | – | – | – | – | – | – | – | – | MIC E. coli BL21 ([2]; 96-well plate, 37° C., 10 h): 12.5 µg/mL; MIC P. aeruginosa ([3]; 96-well plate, 37° C., 10 h): 50 µg/mL; MIC K. pneumonia ([4]; 96-well plate, 37° C., 10 h): 25 µg/mL; MIC E. cloacae ([5]; 96-well plate, 37° C., 10 h): 50 µg/mL; MIC A. hydrophila ([6]; 96-well plate, 37° C., 10 h): 25 µg/mL; MIC C. diversus ([7]; 96-well plate, 37° C., 10 h): 12.5 µg/mL; MIC M. catarrhalis ([8]; 96-well plate, 37° C., 10 h): 25 µg/mL; MIC P. mirabilis ([9]; 96-well plate, 37° C., 10 h): 50 µg/mL; MIC P. vulgaris ([10]; 96-well plate, 37° C., 10 h): 25 µg/mL; MIC S. marcescens ([11]; 96-well plate, 37° C., 10 h): 12.5 µg/mL
